Where two headings read alike, the source gives them in different places. Square brackets hold non-standard residues; d marks the D form. Peptide text beside a SMILES is read from it. * marks the point of attachment. Pentanoyl(5-PPh3+) = O=C(CCCC[P+](c1ccccc1)(c1ccccc1)c1ccccc1)*; d(pY) = N[C@H](Cc1ccc(OP(=O)(O)O)cc1)C(=O)O; pY = N[C@@H](Cc1ccc(OP(=O)(O)O)cc1)C(=O)O; NBD = O=[N+]([O-])c1ccc(*)c2nonc12; Cbz = O=C(OCc1ccccc1)*; βAla = NCCC(=O)O; CH2F = FC*
Key:
[1] = TEM of nanostructures before and after addition of ALP; assay type: physicochemical; details: 100 µM, before ALP
[2] = test system: alkaline phosphatase (ALP); details: substrate 0.1 wt%, ALP 0.1 U/mL
[3] = ALP 1 U/mL, 24 h, PBS buffer pH 7.4
HS5 cells = details: 100 µM
active caspase3 = details: Saos2 cells, 50 µM, first 3 h of treatment

Row | SMILES | diameter of uniform nanoparticles (TEM) [1] | percentage of enzymatic dephosphorylation after 24 h [2] | t1/2 of ALP catalyzed dephosphorylation [2] | increase of the SLS signal after addition of ALP ([3]; 25 µM precursor) | increase of the SLS signal after addition of ALP ([3]; 50 µM precursor) | increase of the SLS signal after addition of ALP ([3]; 100 µM precursor) | increase of the SLS signal after addition of ALP ([3]; 200 µM precursor) | cytotoxicity against HS5 cells (HS5 cells) | expression level of active caspase3 relative to untreated cells (active caspase3) | cell viability of unstimulated Saos2 (Saos2 cells; 50 µM, 48h) | toxicity on Saos2 cells of the inhibitor itself (Saos2 cells; 45 µM)
1 | O=C(CCCC[P+](c1ccccc1)(c1ccccc1)c1ccccc1)NCCCC[C@@H](NC(=O)[C@@H](Cc1ccc(OP(=O)(O)O)cc1)NC(=O)[C@@H](Cc1ccccc1)NC(=O)[C@@H](Cc1ccccc1)NC(=O)CCNc1ccc([N+](=O)[O-])c2nonc12)C(=O)O [D-1P] ({NBD-βAla}-[dF][dF][d(pY)][dK](Pentanoyl(5-PPh3+))-OH) | 25 ±2 nm | about 90% | 33 min | 43 fold | 10 fold | 8 fold | 4 fold | almost innocuous | about 1.7 fold |  | 
2 | O=C(CCCC[P+](c1ccccc1)(c1ccccc1)c1ccccc1)NCCCC[C@H](NC(=O)[C@H](Cc1ccc(OP(=O)(O)O)cc1)NC(=O)[C@H](Cc1ccccc1)NC(=O)[C@H](Cc1ccccc1)NC(=O)CCNc1ccc([N+](=O)[O-])c2nonc12)C(=O)O [L-1P] ({NBD-βAla}-FF[pY]K(Pentanoyl(5-PPh3+))-OH) |  | ~80% | 68.4 min | 120 fold | 48 fold | 18 fold | 14 fold | almost innocuous | changes little | 71.7% | 
3 | COC(=O)C[C@H](NC(=O)[C@H](C)NC(=O)[C@@H](NC(=O)OCc1ccccc1)C(C)C)C(=O)CF [zVAD-fmk, reference compound] (Cbz-Val-Ala-Asp(OMe)-CH2F) |  |  |  |  |  |  |  |  |  |  | no toxicity

— publication PMC5291163 (Journal of the American Chemical Society, 2016)
